The record followed here is patent publication US20210371388A1, “Bicyclic Carboxamide with Exocyclic Urea Derivatives as Antivirals for the Treatment of HBV Infection” (Baruch S. Blumberg Institute, priority 2020, published 2021).

pEC50: −log10 of the molar value.

For the experiment, the system named is HBV replication in AML12HBV10 cells. Nature of the experiment: Antiviral efficacy: HBV DNA in AML12HBV10 cell lysates by dot-blot hybridization. It counts as cell-based. The settings on record: Hepatitis B virus, AML12HBV10, 48 h, read-out: Antiviral activity (EC50), AML12HBV10 cells, 48 hours treatment, concentration that reduces the amount of HBV DNA by 50%. As for the experimental part: The antiviral efficacy of the compounds of the disclosure, as presented in Table 2, were determined in AML12HBV10 cells. AML12HBV10 is an immortalized murine hepatocyte (AML12)-derived stable cell line that supports robust HBV replication in a tetracycline inducible manner (Xu et al.). The cells were seeded into 96 well plates at a density of 2×10^4 cells per well and cultured in DMEM/F12 media with 10% fetal bovine serum in the absence of tetracycline to allow pgRNA transcription and HBV DNA replication. One day after seeding, cells were left untreated or treated with a serial dilution of testing compounds, ranging from 50 μM to 0.39 μM, for 48 hours. Cells were then lysed by adding into each well of 100 μl lysis buffer containing 10 mM Tris-HCl (pH 7.6), 1 mM EDTA, 100 mM NaCl and 1% NP-40 and incubated at 37° C. for 30 minutes. Half amount (50 μλ) of cell lysate from each well was combined with equal volume of denaturing solution containing 0.5N NaOH and 1.5M NaCl. After 5 minute incubation, 100 μl of neutralization solution (1M Tris-HCl, pH 7.4, 1.5M NaCl) was added into each well. The denatured cell lysates (totally 200 μl) were applied onto Nylon membrane using 96-well dot-blot manifold (Biorad). HBV DNA in the cell lysates were determined by dot-blot hybridization with alpha-^32P-UTP-labelled riboprobe specific for HBV minus strand DNA. The antiviral efficacy of a compound of the disclosure was expressed as the concentration that reduces the amount of HBV DNA by 50% (EC50).
As for `O=C(Nc1ccc(F)c(Cl)c1)N1CCNc2cc(OCc3ccccc3)ccc21` [Entry 87], the pEC50 is 5.55.
With `O=C(Nc1ccc(F)c(Cl)c1)N1C(c2ccccc2)CN[C@H]2CCCC[C@@H]21` (stereo partly shown) [Entry 88], the pEC50 was ≤ 5.00.
As for `O=C(Nc1ccc(F)c(Cl)c1)N1c2ccccc2NCC1CN1CCOCC1` (stereo not shown) [Entry 89], the pEC50 is 5.14.
In the case of `COC(=O)C1COCCN1CC1CNc2ccccc2N1C(=O)Nc1ccc(F)c(Cl)c1` (stereo not shown) [Entry 90], the pEC50 was 5.66.
For the compound `O=C(O)C1COCCN1CC1CNc2ccccc2N1C(=O)Nc1ccc(F)c(Cl)c1` (stereo not shown) [Entry 91], the pEC50 is ≤ 5.00.
As for `O=C(Nc1ccc(F)c(Cl)c1)N1CC(CN2CCOCC2)Nc2ccccc21` (stereo not shown) [Entry 96], the pEC50 was ≤ 5.00.
For `COC(=O)[C@H]1CC(F)(F)CN1CC1CNc2ccccc2N1C(=O)Nc1ccc(F)c(Cl)c1` (stereo partly shown) [Entry 97], the pEC50 is ≤ 5.00.
For `O=C(O)[C@H]1CC(F)(F)CN1CC1CNc2ccccc2N1C(=O)Nc1ccc(F)c(Cl)c1` (stereo partly shown) [Entry 98], the pEC50 is ≤ 5.00.
With `COC(=O)[C@@H]1CC(F)(F)CN1CC1CNc2ccccc2N1C(=O)Nc1ccc(F)c(Cl)c1` (stereo partly shown) [Entry 100] the figure was 5.95; with `O=C(Nc1ccc(F)c(Cl)c1)N1c2ccccc2NCC1CN1CCC2(CC1)OCCO2` (stereo not shown) [Entry 103], ≤ 5.00; with `CS(=O)(=O)N1CCN(CC2CNc3ccccc3N2C(=O)Nc2ccc(F)c(Cl)c2)CC1` (stereo not shown) [Entry 104], ≤ 5.00.
Take `CCOC(=O)C1=C(F)CCN(CC2CNc3ccccc3N2C(=O)Nc2ccc(F)c(Cl)c2)C1` (stereo not shown) [Entry 105]: the pEC50 is ≤ 5.00.
On to `CCOC(=O)C1CN(CC2CNc3ccccc3N2C(=O)Nc2ccc(F)c(Cl)c2)CCC1(F)F` (stereo not shown) [Entry 106], for which the pEC50 is 5.11.
As for `O=C(O)C1CCCN(CC2CNc3ccccc3N2C(=O)Nc2ccc(F)c(Cl)c2)C1` (stereo not shown) [Entry 107], the pEC50 is ≤ 5.00.
With `O=C(Nc1ccc(F)c(Cl)c1)N1c2ccccc2NCC1CN1CCC(F)(F)C(CO)C1` (stereo not shown) [Entry 108], the pEC50 was 5.66.
Regarding `O=C(Nc1ccc(F)c(Cl)c1)N1c2ccccc2NCC1CN1CCS(=O)(=O)CC1` (stereo not shown) [Entry 110], the pEC50 is 5.70.
For `O=C(Nc1cc(F)c(F)c(F)c1)N1CCN(C(=O)Nc2ccc(F)c(Cl)c2)c2ccccc21` [Entry 111], the pEC50 is 6.30.
As for `O=C(Nc1ccc(F)c(Cl)c1)N1CCN(C(=O)Nc2cc(Cl)c(F)cc2F)c2ccccc21` [Entry 112], the pEC50 is 6.54.
To `O=C(O)C1CN(CC2CNc3ccccc3N2C(=O)Nc2ccc(F)c(Cl)c2)CC(F)(F)C1` (stereo not shown) [Entry 113] belongs 6.35; to `Cc1cc(NC(=O)N2CCNc3ccccc32)ccc1F` [Entry 116], 6.62; to `N#Cc1cc(NC(=O)N2CCNc3ccccc32)ccc1F` [Entry 119], 6.28.
Turning to `O=C1CCN(C(=O)Nc2ccc(F)c(C(F)(F)F)c2)C2CCCCC12` (stereo not shown) [Entry 120], the pEC50 is 5.96.
Take `O=C(Nc1ccc(F)c(C(F)(F)F)c1)N1CCNc2ccccc21` [Entry 122]: the pEC50 was 6.49.
As to `O=C(Nc1ccc(F)c(C(F)F)c1)N1CCNc2ccccc21` [Entry 125], the pEC50 was 6.72.
With `O=C1CCN(C(=O)Nc2cccc(Cl)c2)C2CCCCC12` (stereo not shown) [Entry 126] the figure was 6.70.
